Reference: patent US7888341B2, “Combination of glivec (STI571) with a cyclin-dependent kinase inhibitor, especially flavopiridol, in the treatment of cancer” (The United States of America as represented by the …, priority 2002, dated 2011)
Where a name gives a salt, the structure may show the parent alone.

What was measured:
[1] = test system: K562 human leukemia cells; assay: Apoptosis in K562 cells, morphologic assessment of Wright-Giemsa-stained slides; type: cell-based
Description: (§1) They are cultured in drug-free medium prior to all experimental procedures.
Assessment of apoptosis: Following drug exposures, cytocentrifuge preparations are stained with Wright-Giemsa and viewed by light microscopy to evaluate the extent of apoptosis as described in Wang Z. et al., 1999 Cancer Res. 59, 1259-67.
Values represent the means for three separate experiments performed in triplicate±SD (standard deviation).
Values represent the means for three separate experiments performed in triplicate±S.D (standard deviation).
The Combination Index (CI) is determined in relation to the fraction of cells affected using Median Dose Effect analysis. Results are representative of three separate experiments.

[2] = test system: K562R cells (drug-resistant K562, high Bcr/Abl protein); assay: Apoptosis in drug-resistant K562R cells, morphologic assessment; type: cell-based, human
Description: as §1
Values represent the means for three separate experiments performed in triplicate±S.D.

## CN1CC[C@H](c2c(O)cc(O)c3c(=O)cc(-c4ccccc4Cl)oc23)[C@H](O)C1 [FP, 4H-1-benzopyran-4-one,2-(2-chlorophenyl)-5,7-dihydroxy-8-(3-hydroxy-1-methyl-4-piperidinyl)-,hydrochloride, (−)-cis-]
[1]; K562, 150 nM FP by itself
  cell death: < 5%
[1]; K562, 24 h, FP 150 nM (time course)
  percentage of apoptotic cells, mean: 1.40%
[1]; K562, 48 h, FP 50 nM without SALT I
  percentage of apoptotic cells, mean: 1.9%
[1]; K562, 48 h, FP 100 nM without SALT I
  percentage of apoptotic cells, mean: 2.4%
[1]; K562, 48 h, FP 150 nM (time course)
  percentage of apoptotic cells, mean: 3.33%
[1]; K562, 48 h, FP 150 nM without SALT I
  percentage of apoptotic cells, mean: 3.2%
[1]; K562, 48 h, FP 200 nM without SALT I
  percentage of apoptotic cells, mean: 6.1%
[1]; K562, 48 h, FP 300 nM without SALT I
  percentage of apoptotic cells, mean: 18.5%
[1]; K562, 48 h, SALT I 0 nM + FP 150 nM (FP alone)
  percentage of apoptotic cells, mean: 0.9%
[2]; 48-hr exposure, 150 nM FP
  toxicity: non-toxic
[2]; 48 h, FP 200 nM
  percentage of apoptotic cells, mean: 1.77%

## Cc1ccc(NC(=O)c2ccc(CN3CCN(C)CC3)cc2)cc1Nc1nccc(-c2cccnc2)n1 [SALT I, 4-[(4-methyl-1-piperazin-1-ylmethyl)-N-[4-methyl-3-[[4-(3-pyridinyl)-2-pyrimidinyl]amino]phenyl]benzamide methanesulfonate]
[1]; K562, 24 h, SALT I 200 nM (time course)
  percentage of apoptotic cells, mean: 2.57%
[1]; K562, 48 h, FP 0 nM + SALT I 200 nM (SALT I alone)
  percentage of apoptotic cells, mean: 5.7%
[1]; K562, 48 h, SALT I 50 nM without FP
  percentage of apoptotic cells, mean: 1.9%
[1]; K562, 48 h, SALT I 100 nM without FP
  percentage of apoptotic cells, mean: 1.8%
[1]; K562, 48 h, SALT I 150 nM without FP
  percentage of apoptotic cells, mean: 3.0%
[1]; K562, 48 h, SALT I 200 nM (time course)
  percentage of apoptotic cells, mean: 5.97%
[1]; K562, 48 h, SALT I 200 nM without FP
  percentage of apoptotic cells, mean: 4.6%
[1]; K562, 48 h, SALT I 250 nM without FP
  percentage of apoptotic cells, mean: 8.9%
[1]; K562, 48 h, SALT I 300 nM without FP
  percentage of apoptotic cells, mean: 20.3%
[1]; K562, 48 h, SALT I 400 nM without FP
  percentage of apoptotic cells, mean: 30.8%
[1]; K562, 48 h, SALT I 500 nM without FP
  percentage of apoptotic cells, mean: 53.8%
[1]; K562, 48 hr, SALT I concentrations <300 nM
  induction of apoptosis: weakly induces apoptosis
[1]; parental K562S cells, 1.5 μM SALT I, 48 hr
  apoptosis: > 95%
